Literature values, collected in US20100125067A1, “SULFONAMIDE INHIBITORS OF CARBONIC ANHYDRASE II” (AUSPEX PHARMACEUTICALS, INC., priority 2008, published 2010).

Legend:
[1] = target: carbonic anhydrase I (Homo sapiens, UniProt P00915); conditions: as compared to the parent compound dorzolamide
[2] = target: carbonic anhydrase II (Homo sapiens, UniProt P00918); conditions: as compared to the parent compound dorzolamide

carbonic anhydrase I, sequence (P00915 whole entry, species assumed): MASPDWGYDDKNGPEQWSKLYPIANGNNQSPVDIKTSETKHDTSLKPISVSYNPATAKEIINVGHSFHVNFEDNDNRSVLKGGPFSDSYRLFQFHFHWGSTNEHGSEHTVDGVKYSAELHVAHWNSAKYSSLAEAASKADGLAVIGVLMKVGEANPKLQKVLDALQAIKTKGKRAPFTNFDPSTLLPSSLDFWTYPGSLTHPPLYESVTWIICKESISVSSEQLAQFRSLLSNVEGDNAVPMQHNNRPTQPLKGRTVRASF

Structure (SMILES): CC1CC(N)c2cc(S(N)(=O)=O)sc2S1(=O)=O (centres unmarked) [N-de-ethylated metabolite]
- potency as inhibitor of carbonic anhydrase I [1]: more potent inhibitor
- potency as inhibitor of carbonic anhydrase II [2]: less potent inhibitor
